# Molecular target: T1, Type-1 angiotensin II receptor (Homo sapiens, UniProt P30556)
# T1 sequence (P30556 whole entry): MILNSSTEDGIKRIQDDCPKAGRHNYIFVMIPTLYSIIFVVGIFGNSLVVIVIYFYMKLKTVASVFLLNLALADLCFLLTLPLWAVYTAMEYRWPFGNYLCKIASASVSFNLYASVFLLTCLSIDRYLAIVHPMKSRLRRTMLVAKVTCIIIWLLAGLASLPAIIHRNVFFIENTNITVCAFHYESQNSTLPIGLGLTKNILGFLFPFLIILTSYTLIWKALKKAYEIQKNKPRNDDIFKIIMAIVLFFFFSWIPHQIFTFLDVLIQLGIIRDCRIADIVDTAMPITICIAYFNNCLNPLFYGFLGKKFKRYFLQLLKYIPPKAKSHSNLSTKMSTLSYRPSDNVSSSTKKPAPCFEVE
# Assay: antagonism of angiotensin II type 1 receptor – cell-based, uHTS hits, selectivity assay for APJ receptor antagonist project, dose response (AID 463214)
row,IC50 [µM],SMILES
1,34.6,COc1ccc2c(c1)C(O)C(=O)[C@H](c1ccc(OC)c(Br)c1)O2 (some centres not stated)
2,28.7,Cc1ncc(C=O)c(CNNc2ccc(C(F)(F)F)cn2)c1O
3,36,"CCOC(=O)C1C(C)=NC2=C(C(=O)CC(c3cccs3)C2)C1c1cccs1 (configuration not stated) [2-Methyl-5-oxo-4,7-di-thiophen-2-yl-1,4,5,6,7,8-hexahydro-quinoline-3-carboxylic acid ethyl ester]"
4,35.3,"Cc1[nH]n(C(N)=S)c(=O)c1N=Nc1ccc([N+](=O)[O-])cc1 [3-Methyl-4-(4-nitro-phenylazo)-5-oxo-4,5-dihydro-pyrazole-1-carbothioic acid amide]"
5,28.4,COC(=O)c1[nH]nc(C(O)c2ccc(Cl)cc2)c1-c1ccc(OC)cc1 (configuration not stated) [MLS000702189]
6,3.63,O=C1C=CC([N+](=O)[O-])=CC1CN=Nc1ccc(Cl)nn1 (configuration not stated) [SMR000184399]
7,39.9,CCOC(=O)c1[nH]nc(C(O)c2ccc(Cl)cc2)c1-c1ccccc1 (configuration not stated) [SMR000271792]
